Laboratory results: patent US12070462B2, “SETBP1 inhibitors for the treatment of myeloid neoplasms and solid tumors” (The Henry M. Jackson Foundation for the Advancement of …, priority 2018, dated 2024)

Key:
[1] = system: Setbp1-immortalized myeloid progenitor cells; assay: Apoptosis (Annexin V) and differentiation/cytotoxicity (cytospin) in Setbp1-immortalized cells; format: cell-based, mouse; details: for differentiation/cytotoxicity: 100 nM
Protocol: (§1) Cell Culture Studies of Immortalized Myeloid Progenitors. Mouse myeloid progenitors immortalized by 3×FLAG-tagged Setbp1 and Setbp1(D/N) were generated and maintained as previously described using pMYs-3×FLAG-Setbp1-IRES-GFP and pMYs-3×FLAG-Setbp1(D/N)-IRES-GFP viruses respectively (Oakley et al., Blood 119(25): 6099-6108 (2012). Lentiviral transduction of these immortalized cells was carried out by spinoculation in which a mixture of lentivirus and target cells was spun at 2000×g for 90 minutes at 37° C. Transduced cells were selected by treatment with puromycin (2 μg/ml) for 24 hours at 24 hours after lentiviral transduction. Colony formation assays for transduced cells were performed at 48 hours after infection using 1×10^4 puromycin-resistant cells on IMDM methylcellulose medium supplemented with 20% horse serum, mouse Scf (100 ng/ml) and II-3 (10 ng/ml), and puromycin (2 μg/ml) with colony numbers counted after 7 days. For studying effects of KPT-185 (Selleck Chemicals, Houston, TX) in liquid culture, immortalized cells were treated at 2.5×10^5 cells/ml concentration. Detection of apoptosis was performed using PE Annexin V Apoptosis Detection Kit (BD Biosciences). KPT-185 was directly added to methylcellulose medium for assessing its effects on colony formation by immortalized cells.

[2] = system: Setbp1(D/N)-immortalized mouse myeloid progenitors; assay: Colony formation on methylcellulose by Setbp1(D/N)-immortalized myeloid progenitors; format: cell-based; details: for colony formation: Setbp1 (D/N)-immortalized cells, 1 nM
Protocol: (§2) In Vitro and In Vivo Testing of Compound (1AA). The activity of Compound 1AA against myeloid neoplasms was first determined in vitro by assessing its inhibitory effect on the colony formation by Setbp1/Setbp1(D/N)-immortalized mouse myeloid progenitors on IMDM methylcellulose medium with 20% horse serum plus mouse Scf (50 ng/ml) and Il-3 (10 ng/ml). The in vivo activity of Compound 1AA was evaluated by assessing its capability to reduce spleen size and to extend the survival of mice transplanted with Setbp1(D/N)-induced leukemia cells. For the generation of leukemic mice, 5×10^5 spleen cells from a primary recipient mouse with Setbp1(D/N)-induced leukemia were injected into the tail vein of each sublethally irradiated (550 rads from a ^137Cs source) B6-Ly5.2 female mouse. Starting from day 10 after transplantation, the recipient mice were treated with Compound (1AA) (33 mg/kg, dissolved in saline) or saline through five intra-peritoneal injections. The activity of Compound 1AA against solid tumors is determined by assessing its growth inhibitory effects on different human solid tumor cell lines in culture. Specifically, cellular ATP levels of liquid cultures of these cell lines are measured at 72 hours after treatment with serially diluted concentrations of Compound 1AA and compared to untreated cells.
(§3) Cell Culture Studies of Immortalized Myeloid Progenitors. […]

[3] = system: Setbp1-immortalized mouse myeloid progenitors; assay: Colony formation on methylcellulose by Setbp1-immortalized myeloid progenitors; format: cell-based; details: for colony formation: Setbp1-immortalized cells, 1 nM, 5 nM, 10 nM, and 100 nM
Protocol: as §2, §3

[4] = molecular target: T1, interaction between Setbp1(D/N) and XPO1 (Mus musculus, UniProt Q9Z180, D859N); assay: Co-immunoprecipitation / Western blotting of nuclear extracts of transfected HEK293T cells; format: cell-based; details: 1 μM, 10 μM and 25 μM, 12 hours, M2 immunoprecipitates
T1 construct: expressed in transfected cells; host or cells: HEK293T
Protocol: Western blotting analyses using indicated specific antibodies were performed on M2 immunoprecipitates prepared from nuclear extracts of HEK293T cells transiently transfected with pMYs-3×FLAG-Setbp1-IRES-GFP and subsequently treated with different concentrations of Compound (1AA) and control DMSO for 12 hours.
Immunoprecipitation. HEK293T cells were transfected with the indicated expression constructs using LipoD293 (SignaGen Laboratories, Rockville, MD) and nuclear extracts were isolated 48 hours after transfection using the Nuclear Complex Co-IP kit (Active Motif, Carlsbad, CA). Nuclear lysates were incubated with either 4 μg of anti-Flag M2 (Sigma Aldrich, St. Louis, MO) or anti-XPO1 (NB100-79802, Novus Biological, Centennial, CO) for 4 hours at 4° C. Subsequently, Dynabeads protein A (Invitrogen, Carlsbad, CA) were added to the nuclear lysate/antibody mixture and incubated for an additional 2 hours at 4° C. Immunoprecipitated proteins were eluted and analyzed by Western blotting analysis. For immunoprecipitation experiments using in vitro transcribed and translated proteins, the corresponding cDNAs were cloned into pCMV-TNT and the TnT T7 Coupled Wheat Germ Extract (Promega, Madison, WI) system was used according to the manufacturer's instructions.
Western Blotting Analysis. […]

[5] = system: Hoxa9, Hoxa10 and Myb mRNA levels; assay: Real-time RT-PCR of Setbp1(D/N) target genes in Setbp1(D/N)-immortalized cells; format: cell-based, mouse; details: for Setbp1 (D/N) target transcription levels of Hoxa9, Hoxa10 and Myb: Setbp1 (D/N)-immortalized cells, 12 hours post-treatment, 1 nM
Protocol: as §1
(§4) Real-Time RT-PCR. For real-time RT-PCR, total RNA was extracted from cells using Nucleospin RNA (Clontech, Duren, Germany). Oligo-dT-primed cDNA samples were prepared using Superscript III (Invitrogen), and real-time PCR analysis was performed in triplicates using SYBR green detection reagents (Invitrogen) on a QuantStudio real time PCR system (Applied Biosystems, Foster City, CA). Relative changes in expression were calculated according to the ΔΔCt method. The cycling conditions were 50° C. for 2 minutes followed by 95° C. for 2 minutes, and then 40 cycles of 95° C. for 15 seconds and 60° C. for 1 minute. […]

[6] = system: Setbp1(D/N)-immortalized myeloid progenitors; assay: Apoptosis (Annexin V) and differentiation/cytotoxicity (cytospin) in Setbp1(D/N)-immortalized cells; format: cell-based, mouse; details: for differentiation/cytotoxicity: Setbp1 (D/N)-immortalized cells, 100 nM
Protocol: as §1

[7] = system: Hoxa9, Hoxa10 and Myb mRNA levels; assay: Real-time RT-PCR of Setbp1 target genes in Setbp1-immortalized cells; format: cell-based, mouse; details: for Setbp1 target transcription levels of Hoxa9, Hoxa10 and Myb: 12 hours post-treatment, 1 nM
Protocol: as §1, §4

[8] = system: Setbp1(D/N)-induced leukemia; assay: Mice transplanted with Setbp1(D/N)-induced AML, treatment with Compound (1AA); format: in vivo, mouse; details: 33 mg/kg, five intra-peritoneal injections from day 10 after transplantation, vs vehicle
Protocol: as §2

[9] = system: Setbp1(D/N)-induced leukemia; assay: Mice transplanted with Setbp1(D/N)-induced AML, treatment with KPT-330; format: in vivo, mouse
Protocol: Bone Marrow Transplantation and In Vivo Treatment with KPT-330. For generation of leukemic mice, 1×10^6 spleen cells from a primary recipient mouse with Setbp1(D/N)-induced leukemia were injected into the tail vein of each lethally irradiated (1100 rads from a ^137Cs source) B6-Ly5.2 female mouse along with 7.5×10^5 supporting bone marrow cells from un-irradiated B6-Ly5.2 mice. Starting from day 7 after transplantation, the recipient mice were treated with KPT-330 (20 mg/kg, dissolved in 2% DMSO/49% PEG300/ddH2O) or vehicle through oral gavage once every two days. KPT-330 was purchased from Selleck Chemicals.

T1 sequence (Q9Z180 whole entry D859N): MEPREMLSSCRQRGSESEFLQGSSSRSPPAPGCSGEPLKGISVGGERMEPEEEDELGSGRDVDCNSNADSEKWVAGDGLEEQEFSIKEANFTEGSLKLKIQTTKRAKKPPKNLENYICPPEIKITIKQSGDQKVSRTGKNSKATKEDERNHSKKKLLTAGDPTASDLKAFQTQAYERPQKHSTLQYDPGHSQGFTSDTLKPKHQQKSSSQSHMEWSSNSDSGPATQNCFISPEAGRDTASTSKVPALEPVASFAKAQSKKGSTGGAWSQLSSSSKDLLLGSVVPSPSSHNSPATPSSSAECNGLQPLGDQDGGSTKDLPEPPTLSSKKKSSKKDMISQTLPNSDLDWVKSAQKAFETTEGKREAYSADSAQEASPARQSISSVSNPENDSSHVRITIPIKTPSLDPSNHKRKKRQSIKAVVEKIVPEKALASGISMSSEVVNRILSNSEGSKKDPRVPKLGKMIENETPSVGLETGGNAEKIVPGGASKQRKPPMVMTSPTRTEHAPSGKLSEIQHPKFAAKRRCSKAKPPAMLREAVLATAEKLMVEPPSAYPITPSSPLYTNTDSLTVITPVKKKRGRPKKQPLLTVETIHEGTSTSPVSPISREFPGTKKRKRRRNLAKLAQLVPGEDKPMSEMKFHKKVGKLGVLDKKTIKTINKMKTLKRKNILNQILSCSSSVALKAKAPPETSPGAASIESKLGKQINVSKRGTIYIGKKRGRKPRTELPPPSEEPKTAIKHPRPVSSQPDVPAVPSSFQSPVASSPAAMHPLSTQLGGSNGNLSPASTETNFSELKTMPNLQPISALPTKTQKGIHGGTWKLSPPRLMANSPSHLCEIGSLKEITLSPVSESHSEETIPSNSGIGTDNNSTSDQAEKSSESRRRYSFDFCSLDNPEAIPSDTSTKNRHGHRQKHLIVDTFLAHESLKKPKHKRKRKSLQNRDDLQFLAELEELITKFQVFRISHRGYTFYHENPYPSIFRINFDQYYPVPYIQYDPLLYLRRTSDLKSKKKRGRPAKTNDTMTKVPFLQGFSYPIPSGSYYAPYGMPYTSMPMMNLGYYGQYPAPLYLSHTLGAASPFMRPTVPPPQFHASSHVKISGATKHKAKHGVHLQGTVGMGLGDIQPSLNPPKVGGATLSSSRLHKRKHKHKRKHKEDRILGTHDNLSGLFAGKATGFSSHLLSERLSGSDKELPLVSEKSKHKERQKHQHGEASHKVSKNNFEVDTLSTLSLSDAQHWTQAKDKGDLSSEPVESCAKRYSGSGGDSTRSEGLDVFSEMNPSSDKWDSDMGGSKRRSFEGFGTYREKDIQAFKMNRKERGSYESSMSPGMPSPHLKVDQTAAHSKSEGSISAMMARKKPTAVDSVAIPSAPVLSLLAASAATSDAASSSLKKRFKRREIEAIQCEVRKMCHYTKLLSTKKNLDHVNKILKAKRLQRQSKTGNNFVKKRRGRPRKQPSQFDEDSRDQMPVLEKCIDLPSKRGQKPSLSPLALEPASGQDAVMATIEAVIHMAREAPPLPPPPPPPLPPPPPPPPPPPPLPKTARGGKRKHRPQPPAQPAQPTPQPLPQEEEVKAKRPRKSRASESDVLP

SMILES: Cc1c2cc[n+](CCN3CCCCC3)cc2c(C)c2c1[nH]c1ccc(O)cc12.[Br-] [Compound (1AA)]
- differentiation/cytotoxicity [1]: induces differentiation/cytotoxicity
- colony formation ([2]; 5 nM, 10 nM, and 100 nM): inhibits colony formation
- colony formation [3]: inhibits colony formation
- interaction between Setbp1(D/N) and XPO1 [4]: disrupts the interaction
- Setbp1 (D/N) target transcription levels of Hoxa9, Hoxa10 and Myb ([5]; 10 nM, 100 nM and 500 nM): reduces Setbp1 (D/N) target transcription levels
- differentiation/cytotoxicity [6]: induces differentiation/cytotoxicity
- Setbp1 target transcription levels of Hoxa9, Hoxa10 and Myb ([7]; 10 nM, 100 nM and 500 nM): reduces Setbp1 target transcription levels
- spleen size (spleen weights when moribund) [8]: reduced the spleen size
- survival of leukemic mice ([8]; p=0.0034, Log-rank test): significantly extended the survival

SMILES: Nc1ccc(Cn2ccc3c4c(N)nc(N)nc4ccc32)cc1 [Compound (2AA)]
- differentiation/cytotoxicity [1]: induces differentiation/cytotoxicity
- colony formation ([2]; 10 nM, 50 nM, 100 nM, 300 nM and 500 nM): inhibits colony formation
- colony formation [3]: inhibits colony formation
- Setbp1 (D/N) target transcription levels of Hoxa9, Hoxa10 and Myb ([5]; 50 nM, 100 nM and 300 nM): reduces Setbp1 (D/N) target transcription levels
- differentiation/cytotoxicity [6]: induces differentiation/cytotoxicity
- Setbp1 target transcription levels of Hoxa9, Hoxa10 and Myb ([7]; 50 nM, 100 nM and 300 nM): reduces Setbp1 target transcription levels

SMILES: COc1cc(-c2ncn(/C=C\C(=O)OC(C)C)n2)cc(C(F)(F)F)c1 [KPT-185, reference compound]
- apoptosis (Annexin V staining) ([1]; 48 hours after treatment, vs DMSO): induces apoptosis
- differentiation: number of mature neutrophils (cytospin) ([1]; 72 hours after treatment): significantly increase
- relative colony-forming potential ([2]; Setbp1(D/N)-immortalized myeloid progenitors, indicated concentrations, vs DMSO): significantly reduces colony-forming potential
- relative colony-forming potential ([3]; Setbp1-immortalized myeloid progenitors, indicated concentrations, vs DMSO): significantly reduces colony-forming potential
- Hoxa9/Hoxa10/Myb mRNA levels ([5]; Setbp1(D/N)-immortalized cells, 300 nM, 2.5 hours after treatment, vs DMSO): significantly down-regulated
- apoptosis (Annexin V staining) ([6]; Setbp1(D/N)-immortalized cells, 48 hours after treatment, vs DMSO): induces apoptosis
- differentiation (cytospin) ([6]; Setbp1(D/N)-immortalized cells, 72 hours after treatment): induces apoptosis and differentiation
- Hoxa9/Hoxa10/Myb mRNA levels ([7]; 300 nM, 2.5 hours after treatment, vs DMSO): significantly down-regulated

SMILES: O=C(/C=C\n1cnc(-c2cc(C(F)(F)F)cc(C(F)(F)F)c2)n1)NNc1cnccn1 [KPT-330]
- extension of survival time ([9]; 20 mg/kg oral gavage every 2 days from day 7, vehicle mice moribund in 17 days): ≤ 50%
- survival of transplanted mice ([9]; 20 mg/kg oral gavage every 2 days from day 7 after transplantation, vs vehicle, p=0.012, Log-rank test): prolonged the survival
